Data reported in US7199112B2, “Use of phospholipid arachidonic acids for increasing muscle mass in humans” (priority 2005, dated 2007).

Columns and labels:
[1] = system: intestinal transport of certain nutrients; settings: cited from earlier work
IGF-1 response = settings: certain cell studies; cited from earlier work
[2] = system: adrenocorticotropin (ACTH) and cortisol response; settings: intravenous infusion; cited from earlier work
[3] = system: lean skeletal muscle mass; settings: peroral, humans, clinical study by the inventor

Row | Substance | increasing lean skeletal muscle mass [3] | also measured
1 | Lysophosphatidylcholine | – | intestinal transport of certain nutrients [1]: increases
2 | Phosphatidylcholine | – | IGF-1 response (IGF-1 response): exert an IGF-1 response
3 | Phosphatidylserine | – | adrenocorticotropin (ACTH) and cortisol response to stressful exercise [2]: significantly suppresses
4 | lysophosphatidylcholine arachidonic acid | effective | –
5 | phosphatidylcholine arachidonic acid | effective | –
6 | phosphatidylserine arachidonic acid | effective | –
